The text below walks through data of patent US20210317143A9, “BORONIC ESTER PRODRUGS AND USES THEREOF” (Massachusetts Institute of Technology, priority 2019, published 2021).

One data set deals with MM.1S cells. Nature of the data set: In vitro cell viability assay (Celltiter glo) in MM.1S. It counts as cell-based. Conditions: Homo sapiens, MM1.S, effect on cell proliferation after 48 h of incubation. As to the method:
(§1) The effect on cell proliferation after 48 h of incubation with each agent was compared.
(§2) Both cell lines were cultured in RPMI media (ThermoFisher Scientific) supplemented with 10% FBS (VWR), 1% Penicillin/Streptomycin (ThermoFisher Scientific), and 1% glutamine (ThermoFisher Scientific). MM.1SLuc+/GFP+ cells were generated by retroviral transduction and authenticated by short tandem repeat DNA profiling. All cell lines were confirmed to be mycoplasma negative using the kit MycoAlert Mycoplasma (Lonza). Cell lines were housed in 5% CO2 and 37° C., incubators.
(§3) Cells were plated at 10,000 cells/well in a 96 well plate overnight and then treated for 48 hours with either bortezomib (Btz) or Btz-bottlebrush (BBP) at various concentrations. Cell viability assay was performed using the Celltiter glo reagent kit (Promega).
(§4) Toxicological studies were carried out including in vitro cell viability experiments and in vivo survivability studies (FIGS. 8A to 8B and FIG. 9A, respectively). The in vitro cell viability studies were carried out in both MM S model (for experimental details see Manier, S, et al., Science Translational Medicine 2017, 9, 389) and KMS11 flank cancer model. […] For the maximum tolerated dose (MTD) studies, animals (n=3-5) were dosed 4 times, with the exception that the 20 mg/kg group was dosed three times.
A general note: ATP-based viability assays read luminescence as a measure of living cells.

Another data set relates to KMS11 cells. In words: In vitro cell viability assay (Celltiter glo) in KMS11. In kind it is cell-based. Conditions: Homo sapiens, KMS-11; KMS11, effect on cell proliferation after 48 h of incubation. As to the method: as §1, §2, §3, §4
Data set [1] in a line: In vivo toxicity / maximum tolerated dose in healthy BALB/c mice. Conditions: BALB/c, mouse, in vivo, subcutaneous. How it is done:
(§5) Mice were euthanized if their body weight reached a 20% loss.
as §4

Another data set has as its system healthy BALB/c mice. The description is as above. Conditions: twice a week. As to the method: as §5, §4
In the next data set the test system is KMS11 subcutaneous tumor. In words: Efficacy study in subcutaneous model of MM (KMS11). It counts as in vivo, mice. Conditions: 0.75 mg/kg twice a week (Btz at MTD; Btz-BBP dose-match, intravenous).
A further data set relates to MM.1SLuc+/GFP+ cells. The conditions noted are these: 0.75 mg/kg (free Btz MTD; Btz-BBP dose-match).

Method for KMS11 subcutaneous tumor: Treatments were administered over a period of 50 days, after which tumor were left to freely progress.
The subcutaneous model of MM was generated with an injection of 3 million KMS11 cells in the hind flank of NCR nude mice. […] Tumor growth was monitor by caliper measurements (tumor measurement. TM). Once the tumor reached 1 cm in diameter, mice were randomly attributed to a treatment group. […] Drug was injected twice a week for a period of 4 weeks (8 injections in total) after mice were enrolled in the study. Mice body weight were tracked till day 50 (body weight measurement, BWM). Animals were sacrificed once the tumor reached 2 cm in the longest axis.
Method for MM.1SLuc+/GFP+ cells: The tumors were induced via intravenous injection of MM.1SLuc+/GFP+ cells, and tumor progression was quantified by bioluminescence via the luciferase signal expressed by the MM.1S cells (FIGS. 12A to 12F). […] Mice (n=5) were treated for 30 days with the same treatment groups and dosing schedule described in the previous tumor model.
The orthotopic model of MM was obtained by injecting intravenously 1.5 million MM.1SLuc+/GFP+ cells in the tail vain of SCID/beige mice. Tumor dissemination was assessed by IVIS imaging (IVIS Spectrum. Perkin Elmer, bioluminescence imaging, BLI) once a week. […] Drug was injected twice a week for a period of 2 weeks (4 injections in total). Tumor burden response was obtained by IVIS imaging performed once a week. After 25 days, treatment was stopped. Endpoint criteria of the study was hind limb paralysis or loss of >20% of their initial body weight.

Usually IC50 stands for the concentration needed to halve the response being measured. A word on the MTD: it is the largest dose that counted as tolerated. Consider `CC(C)C[C@H](NC(=O)[C@H](Cc1ccccc1)NC(=O)c1cnccn1)B(O)O` [Btz, bortezomib], for which the IC50 stood at 3.5 ± 1.4 nM in the data set with MM.1S cells and 29.9 ± 1.6 nM with KMS11 cells. The molecule also had an MTD at 4 weeks in data set [1] of 0.75 mg/kg. Besides, the “survival rates at higher doses” value in the data set with healthy BALB/c mice (free Btz above 0.75 mg/kg (1, 1.25 mg/kg)) was “rapid decrease of the survival rates”. Besides, the “well-tolerated / safe dose” value with healthy BALB/c mice (healthy BALB/c mice) was 0.75 mg/kg. The molecule also returned a mean survival time in the data set with KMS11 subcutaneous tumor of 42 ± 6 days. In addition, the therapeutic improvement entry in the data set on MM.1SLuc+/GFP+ cells is on record as “diminished improvements”.
